These are literature values, as cited in US20100081862A1, “Composition and method to modify sperm function and increase male gender ratio in mammals” (priority 2008, published 2010).

In data set [1] the test system is Hexose Monophosphate Shunt (HMS). As to conditions: bovine oocytes.
In data set [2] the test system is early-staged mouse embryos. The following applies: living early-staged mouse embryos, transplanted to produce normal living offspring.

Take `CCN(CC)c1cc2c(cc1C)Nc1ccc(N)cc1O2` [BCB, 2-methyl-3-diethylamino-7-amino phenoxazine]: the “increase in oxidation of glucose through the HMS” value in data set [1] is reported as 15 fold. Further, the “increase in glucose metabolism through glycolysis” value in data set [1] (compared with the increase through the HMS) was “somewhat less increase”. Moreover, the “toxicity of BCB and its metabolites” value in data set [2] was “relatively non-toxic”.
